This is an account of results in ChEMBL document CHEMBL1143791, “Synthesis of isonicotinoylhydrazones from anacardic acid and their in vitro activity against Mycobacterium smegmatis” (2007).

Converted amounts (≈) assume the structure as drawn. The source made the active and inactive calls.

In test [1] the test system is Mycobacterium tuberculosis. Put plainly: Antimicrobial activity against Mycobacterium tuberculosis H37Rv at 0.5 ug/ml after 6 weeks. The class given is functional, organism-based.
The subject of test [2] is Mycobacterium tuberculosis. Put plainly: Antimicrobial activity against Mycobacterium tuberculosis H37Rv at 10 ug/ml after 6 weeks. The class given is functional, organism-based.
Test [3] deals with Mycolicibacterium smegmatis. The experiment in a line: Antimicrobial activity against Mycobacterium smegmatis str. MC2 155 after 24 hrs by broth dilution method. The settings on record: str. MC2 155, 24 h. The class given is functional. In general terms: Dilution methods test growth across graded concentrations, often in twofold steps.
The test system of test [4] is Mycolicibacterium smegmatis. The experiment in a line: Antimicrobial activity against Mycobacterium smegmatis mc2 155 after 24 hrs at 0.5 ug/ml by broth dilution method. The class given is functional, organism-based. Conditions: str. MC2 155.
Test [5] concerns Mycolicibacterium smegmatis. Put plainly: Antimicrobial activity against Mycobacterium smegmatis str. MC2 155 after 24 hrs at 100 ug/ml by broth dilution method. The class given is functional, organism-based.
The subject of test [6] is Mycolicibacterium smegmatis. Put plainly: Antimicrobial activity against Mycobacterium smegmatis str. MC2 155 after 24 hrs at 1 ug/ml by broth dilution method. The class given is functional.

In general, MIC refers to the smallest concentration in the dilution series that meets the test's criterion for growth inhibition. Low values mean a more susceptible organism, high ones a less susceptible organism. `O=C(N/N=C/CCCCCCCc1cccc(O)c1C(=O)O)c1ccncc1`: the result in test [1] and in test [4] was inactive. In test [2], the result was Active. The molecule further returned a minimum inhibitory concentration (MIC) in test [3] of 4 µg/mL (≈ 10.4 µM).

As to `CCCCCCCCCCCCCCCc1c([N+](=O)[O-])ccc(O)c1C(=O)O`, the outcome in test [5] was inactive.

In test [3], `NNC(=O)c1ccncc1` [ISONIAZID] gave an MIC of 1.5 µg/mL (≈ 10.9 µM). The Activity in test [6] is 36%.

On to `O=C(N/N=C/CCCCCCCc1c([N+](=O)[O-])ccc(O)c1C(=O)O)c1ccncc1`, for which the result in test [1] and in test [4] was inactive. Further, the result in test [2] was Active. The same molecule had an MIC in test [3] of 5 µg/mL (≈ 11.7 µM).

Take `C=CC/C=C\C/C=C\CCCCCCCc1cccc(O)c1C(=O)O`: in test [5], the result was inactive.
